According to PubChem BioAssay AID328 (DTP/NCI, 2004):
Toxic doses and inconclusive results are not listed.

Test system: BDF1 mice, P388 leukemia ip, median survival T/C
Assay: NCI In Vivo Anticancer Drug Screen. Data for tumor model P388 Leukemia (intraperitoneal) in B6D2F1 (BDF1) mice
Details: endpoint: median survival time, higher = longer survival
Outline: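 Transplantable tumour in mice; compound vs vehicle dosing; survival scored; ratio of treated to control reported.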

[1] = dose: 50.0 mg/kg/injection, schedule: Q01DX009 (ip), vehicle: saline with Tween-80
[2] = dose: 100.0 mg/kg/injection, schedule: Q01DX009 (ip), vehicle: saline with Tween-80
[3] = dose: 200.0 mg/kg/injection, schedule: Q01DX009 (ip), vehicle: saline with Tween-80
[4] = dose: 50.0 mg/kg/injection, schedule: Q01DX009 (ip), vehicle: saline
[5] = dose: 100.0 mg/kg/injection, schedule: Q01DX009 (ip), vehicle: saline
[6] = dose: 200.0 mg/kg/injection, schedule: Q01DX009 (ip), vehicle: saline
[7] = dose: 25.0 mg/kg/injection, schedule: Q01DX009 (ip), vehicle: Klucel (hydroxypropylcellulose) (HPC)
[8] = dose: 50.0 mg/kg/injection, schedule: Q01DX009 (ip), vehicle: Klucel (hydroxypropylcellulose) (HPC)
[9] = dose: 100.0 mg/kg/injection, schedule: Q01DX009 (ip), vehicle: Klucel (hydroxypropylcellulose) (HPC)

O=C(NC(=O)OCCCCCl)Nc1cccc(Cl)c1
T/C [1]: 100 % of control
T/C [2]: 98 % of control
T/C [3]: 88 % of control

CCn1c(Cl)c(/C=N/Nc2ccc([N+](=O)[O-])cc2[N+](=O)[O-])c2ccccc21
T/C (dose: 100.0 mg/kg/injection, schedule: Q04DX002 (ip), vehicle: Klucel (hydroxypropylcellulose) (HPC)): 92 % of control
T/C (dose: 200.0 mg/kg/injection, schedule: Q04DX002 (ip), vehicle: Klucel (hydroxypropylcellulose) (HPC)): 92 % of control
T/C (dose: 400.0 mg/kg/injection, schedule: Q04DX002 (ip), vehicle: Klucel (hydroxypropylcellulose) (HPC)): 88 % of control

CC12CCC(C(N)C1=O)C2(C)C (centres undefined)
T/C [4]: 107 % of control
T/C [5]: 114 % of control
T/C (dose: 100.0 mg/kg/injection, schedule: Q04DX003 (ip), vehicle: saline): 101 % of control
T/C [6]: 86 % of control
T/C (dose: 200.0 mg/kg/injection, schedule: Q04DX003 (ip), vehicle: saline): 104 % of control

C[N+]1(Cc2c[nH]c3ccsc23)CCCCC1
T/C (dose: 3.0 mg/kg/injection, schedule: Q01DX009 (ip), vehicle: saline with Tween-80): 87 % of control
T/C (dose: 3.0 mg/kg/injection, schedule: Q04DX003 (ip), vehicle: saline with Tween-80): 104 % of control
T/C (dose: 6.0 mg/kg/injection, schedule: Q01DX009 (ip), vehicle: saline with Tween-80): 91 % of control
T/C (dose: 6.0 mg/kg/injection, schedule: Q04DX003 (ip), vehicle: saline with Tween-80): 104 % of control
T/C (dose: 12.0 mg/kg/injection, schedule: Q01DX009 (ip), vehicle: saline with Tween-80): 100 % of control
T/C (dose: 12.0 mg/kg/injection, schedule: Q04DX003 (ip), vehicle: saline with Tween-80): 100 % of control

CC(=O)O[C@H]1[C@H]2O[C@]23[C@@H]2CC[C@@H]4C[C@@H](OC(=O)CCC(=O)O)CC[C@]4(C)[C@H]2CC[C@]3(C)[C@H]1c1ccc(=O)oc1
T/C (dose: 0.13 mg/kg/injection, schedule: Q01DX009 (ip), vehicle: Klucel (hydroxypropylcellulose) (HPC)): 100 % of control
T/C (dose: 0.25 mg/kg/injection, schedule: Q01DX009 (ip), vehicle: Klucel (hydroxypropylcellulose) (HPC)): 101 % of control
T/C (dose: 0.5 mg/kg/injection, schedule: Q01DX009 (ip), vehicle: Klucel (hydroxypropylcellulose) (HPC)): 101 % of control

CCCCCCCCCCCCNC
T/C (dose: 12.5 mg/kg/injection, schedule: Q04DX003 (ip), vehicle: saline with Tween-80): 104 % of control
T/C (dose: 25.0 mg/kg/injection, schedule: Q04DX003 (ip), vehicle: saline with Tween-80): 109 % of control
T/C (dose: 50.0 mg/kg/injection, schedule: Q04DX003 (ip), vehicle: saline with Tween-80): 100 % of control

S=c1[nH]nc2ccccn12
T/C [1]: 102 % of control
T/C [2]: 100 % of control
T/C [3]: 102 % of control

Nc1ncc2[nH]c(C(F)(F)F)nc2n1
T/C [1]: 102 % of control
T/C [2]: 102 % of control
T/C [3]: 105 % of control
T/C (dose: 400.0 mg/kg/injection, schedule: Q01DX009 (ip), vehicle: saline with Tween-80): 117 % of control

O=C(C=C(C(F)(F)F)C(F)(F)F)c1ccc(F)cc1
T/C (dose: 6.25 mg/kg/injection, schedule: Q01DX009 (ip), vehicle: Klucel (hydroxypropylcellulose) (HPC)): 101 % of control
T/C (dose: 6.25 mg/kg/injection, schedule: Q01DX009 (ip), vehicle: other): 100 % of control
T/C (dose: 12.5 mg/kg/injection, schedule: Q01DX009 (ip), vehicle: Klucel (hydroxypropylcellulose) (HPC)): 105 % of control
T/C (dose: 12.5 mg/kg/injection, schedule: Q01DX009 (ip), vehicle: other): 109 % of control
T/C (dose: 16.5 mg/kg/injection, schedule: Q01DX009 (ip), vehicle: other): 113 % of control
T/C [7]: 118 % of control
T/C (dose: 25.0 mg/kg/injection, schedule: Q01DX009 (ip), vehicle: other): 118 % of control

CCc1nc(N)nc(N)c1-c1ccc(Cl)c(Cl)c1
T/C (dose: 6.25 mg/kg/injection, schedule: Q01DX010 (ip), vehicle: carboxymethylcellulose (CMC)): 110 % of control
T/C (dose: 8.0 mg/kg/injection, schedule: Q01DX009 (sc), vehicle: Klucel (hydroxypropylcellulose) (HPC)): 90 % of control
T/C (dose: 8.0 mg/kg/injection, schedule: Q03HX024 (ip), vehicle: Klucel (hydroxypropylcellulose) (HPC)): 90 % of control
T/C (dose: 12.5 mg/kg/injection, schedule: Q01DX010 (ip), vehicle: carboxymethylcellulose (CMC)): 100 % of control
T/C (dose: 25.0 mg/kg/injection, schedule: Q01DX010 (ip), vehicle: carboxymethylcellulose (CMC)): 90 % of control
T/C (dose: 32.0 mg/kg/injection, schedule: Q04DX003 (ip), vehicle: Klucel (hydroxypropylcellulose) (HPC)): 163 % of control
T/C (dose: 64.0 mg/kg/injection, schedule: Q08DX002 (ip), vehicle: Klucel (hydroxypropylcellulose) (HPC)): 86 % of control
T/C (dose: 128.0 mg/kg/injection, schedule: Q01DX001 (sc), vehicle: Klucel (hydroxypropylcellulose) (HPC)): 100 % of control
T/C (dose: 128.0 mg/kg/injection, schedule: Q08DX002 (ip), vehicle: Klucel (hydroxypropylcellulose) (HPC)): 86 % of control

COC1C(OC(N)=O)C(O)C(Oc2ccc3c(O)c(NC(=O)c4ccc(O)c(CC=C(C)C)c4)c(=O)oc3c2C)OC1(C)C (centres undefined)
T/C [8]: 121 % of control
T/C [9]: 111 % of control
T/C (dose: 200.0 mg/kg/injection, schedule: Q01DX009 (ip), vehicle: Klucel (hydroxypropylcellulose) (HPC)): 121 % of control

CCCCOC1OCN(CCOC)CC1(C)C (centres undefined)
T/C [1]: 109 % of control
T/C [4]: 116 % of control
T/C [5]: 109 % of control
T/C [3]: 153 % of control
T/C [6]: 118 % of control

CC(C)=NOC(=O)Nc1ccc(Cl)cc1
T/C [7]: 111 % of control
T/C [8]: 118 % of control
T/C [9]: 124 % of control

O=S(=O)(O)O.[Co+3].[Co+3].[NH2-].[NH2-].[NH2-].[NH2-].[NH2-].[NH2-].[NH2-].[NH2-].[NH2-].[NH2-].[O-][O-]
T/C (dose: 1.56 mg/kg/injection, schedule: Q01DX009 (ip), vehicle: saline): 97 % of control
T/C (dose: 3.13 mg/kg/injection, schedule: Q01DX009 (ip), vehicle: saline): 98 % of control
T/C (dose: 6.25 mg/kg/injection, schedule: Q01DX009 (ip), vehicle: saline): 97 % of control

Clc1ccc(-c2nc3ccccc3cc2N2CCCCC2)cc1
T/C (dose: 100.0 mg/kg/injection, schedule: Q01DX001 (ip), vehicle: other): 110 % of control
T/C (dose: 200.0 mg/kg/injection, schedule: Q01DX001 (ip), vehicle: other): 105 % of control
T/C (dose: 400.0 mg/kg/injection, schedule: Q01DX001 (ip), vehicle: other): 105 % of control

O=C(NCCCl)N(CCCl)C(=O)Oc1c(Cl)c(Cl)c(Cl)c(Cl)c1Cl
T/C (dose: 50.0 mg/kg/injection, schedule: Q01DX005 (ip), vehicle: Klucel (hydroxypropylcellulose) (HPC)): 97 % of control
T/C (dose: 100.0 mg/kg/injection, schedule: Q01DX005 (ip), vehicle: Klucel (hydroxypropylcellulose) (HPC)): 105 % of control
T/C (dose: 200.0 mg/kg/injection, schedule: Q01DX005 (ip), vehicle: Klucel (hydroxypropylcellulose) (HPC)): 91 % of control

C(=C\c1ccc2ccccc2n1)/c1ccc2c(c1)OCO2
T/C (dose: 100.0 mg/kg/injection, schedule: Q04DX003 (ip), vehicle: saline with Tween-80): 100 % of control
T/C (dose: 200.0 mg/kg/injection, schedule: Q04DX003 (ip), vehicle: saline with Tween-80): 100 % of control
T/C (dose: 400.0 mg/kg/injection, schedule: Q04DX003 (ip), vehicle: saline with Tween-80): 88 % of control
